Several values for one entry are separate records, joined by “and”; a condition that tells them apart may be missing. Identical values can stand only once. Like-named read-outs stand apart in the source and are kept apart here.
Key:
[1] = system: subjects; conditions: cited from earlier work
[2] = system: volunteers with a positive history of contact allergy to p-phenylenediamine; assay: Occluded patch test with p-phenylenediamine in petrolatum at treatment diameters of 8, 4, 3 and 2 mm; type: in vivo, human; conditions: 0.1% or 1.0% in petrolatum, under occlusion, diameters 8, 4, 3, 2 mm; reactions at 48 h, 72 h and/or 96 h
Protocol: 15 volunteers with a positive history of contact allergy to p-phenylenediamine were recruited. Contact allergy to p-phenylenediamine was determined based on their response to a standard 48 h, 8 mm diagnostic patch test with 1% p-phenylenediamine in petrolatum. According to their known sensitivity, these volunteers were tested with either 0.1% or 1.0% p-phenylenediamine in petrolatum, under occlusion, with treatment diameters of 8, 4, 3, and 2 mm. Reactions at 48 h, 72 h and/or 96 h were recorded using the Internationally accepted dermatology grading scale of N, ?+, +, ++. The responses were transposed into numerical values (0-3 respectively) and summated. The summated scores are presented below.

[3] = system: patch tested subjects; conditions: PPD patch testing, cited from earlier work

| Compound | % sensitised ([1]; Row 1: diameter 3 cm, area 7.1 cm^2, total 1000 μg, 142 μg/cm^2) [%] | % sensitised ([1]; Row 2: diameter 3 cm, area 7.1 cm^2, total 500 μg, 71 μg/cm^2) [%] | % sensitised ([1]; Row 3: diameter 3 cm, area 7.1 cm^2, total 250 μg, 35.4 μg/cm^2) [%] | % sensitised ([1]; Row 4: diameter 3 cm, area 7.1 cm^2, total 125 μg, 17.1 μg/cm^2) [%] | % sensitised ([1]; Row 5: diameter 3 cm, area 7.1 cm^2, total 62.5 μg, 8.8 μg/cm^2) [%] | % sensitised ([1]; Row 6: diameter 1.5 cm, area 1.8 cm^2, total 62.5 μg, 35.4 μg/cm^2) | % sensitised ([1]; Row 7: diameter 2.1 cm, area 3.5 cm^2, total 58 μg, 16.4 μg/cm^2) [%] | % sensitised ([1]; Row 8: diameter 3 cm, area 7.1 cm^2, total 116 μg, 16.4 μg/cm^2) [%] | % sensitised ([1]; Row 9: diameter 4.25 cm, area 14.2 cm^2, total 232 μg, 16.4 μg/cm^2) [%] | % sensitised ([1]; Row 10: l cm paper, area 0.8 cm^2, total 30 μg, 38 μg/cm^2) [%] | % sensitised ([1]; Row 11: 3 mm paper, area 0.08 cm^2, total 3 μg, 38 μg/cm^2) [%] | impact of reduced patch test diameter on the reaction intensity observed [2] | rate of sensitization caused by the test ([3]; Dawe et al. 2004) | incidence of active sensitization ([3]; Devos and van der Valk 2001) [%] |
| --- | --- | --- | --- | --- | --- | --- | --- | --- | --- | --- | --- | --- | --- | --- |
| O=[N+]([O-])c1ccc(Cl)c([N+](=O)[O-])c1 [DNCB, 2,4-dinitrochlorobenzene] | 100 | 100 | 83 | 63 | 8 | 85% and 86% | 55 | 50 | 66 | 93 | 26 |  |  |  |
| Nc1ccc(N)cc1 [PPD, para-phenylenediamine] |  |  |  |  |  |  |  |  |  |  |  | no detectable impact | less than 0.2% | 1.5 |

Source: patent US20140241995A1, “MICROPATCH FOR ASSESSING CHEMICAL CONTACT ALLERGY” (priority 2011, published 2014)
